The text below walks through data of ChEMBL document CHEMBL2069304, “Indole alkaloids from two cultured cyanobacteria, Westiellopsis sp. and Fischerella muscicola” (Bioorg Med Chem, 2012).

For test [1], the system named is Staphylococcus aureus. Kind of test: Antimicrobial activity against Staphylococcus aureus by broth microdilution assay. The format is functional. In general terms: Dilution methods test growth across graded concentrations, often in twofold steps.
In test [2] the test system is HT-29. Kind of test: Cytotoxicity against human HT-29 cells by CellTiter 96 Aqueous One solution cell proliferation assay. The format is functional, cell-based.
In test [3] the test system is MCF7. The test is described as follows: Cytotoxicity against human MCF7 cells incubated for 3 days by SRB assay. The class given is functional, cell-based. As to conditions: MCF7, 72 h.
Test [4] relates to NCI-H460. The test is described as follows: Cytotoxicity against human NCI-H460 cells incubated for 3 days by SRB assay. The class given is functional, cell-based. The following applies: NCI-H460, 72 h. A general note: The SRB assay estimates cell density from bound dye.
Test [5] concerns SF-268. Kind of test: Cytotoxicity against human SF268 cells incubated for 3 days by SRB assay. The class given is functional, cell-based. As to conditions: SF-268, 72 h.
Test [6] has as its system IMR-90. The test is described as follows: Cytotoxicity against human IMR90 cells incubated for 3 days by SRB assay. The class given is cell-based. The following applies: IMR-90, 72 h.
The subject of test [7] is Mycolicibacterium smegmatis. The test is described as follows: Antimicrobial activity against Mycobacterium smegmatis by broth microdilution assay. The class given is functional.
Test [8] deals with Candida albicans. The test is described as follows: Antimicrobial activity against Candida albicans by broth microdilution assay. The format is functional.
Test [9] concerns Escherichia coli. The test is described as follows: Antimicrobial activity against Escherichia coli by broth microdilution assay. The format is functional.
Test [10] relates to Acinetobacter baumannii. Kind of test: Antimicrobial activity against Acinetobacter baumannii by broth microdilution assay. The class given is functional.
The subject of test [11] is Mycobacterium tuberculosis. The test is described as follows: microbe, parasite or virus in culture. The following applies: H37Rv.
Description: Antimicrobial activity against Mycobacterium tuberculosis H37Rv by microplate Alamar blue assay
Test [12] relates to Vero. Kind of test: Cytotoxicity against african green monkey Vero cells by CellTiter 96 aqueous nonradioactive cell proliferation assay. The format is cell-based. As to conditions: Chlorocebus sabaeus.
For test [13], the species on record is Homo sapiens. Kind of test: Inhibition of 20S proteasome at 25 ug/ml.
The mark [14] stands for this setting: Homo sapiens, HT-29, read-out: IC50.

In brackets after ≈: the same amount, converted by molar mass. Activity calls are given as the source filed them. The calls are words filed in the database; no cut-off is given here. A value given as a limit tells only on which side of the number the result lay.

`CC1(C)S[C@@H]2[C@H](NC(=O)[C@H](N)c3ccccc3)C(=O)N2[C@H]1C(=O)O` [AMPICILLIN] displayed an MIC in test [1] of 1.54 µM (≈ 0.538 µg/mL).
As to `[C-]#[N+][C@H]1C(=C)[C@@H](C=C)C[C@@H]2[C@@H]1c1c[nH]c3cccc(c13)C2(C)C` (relative stereo), the IC50 (commonly the concentration that inhibits the measured activity by half) in test [2] (setting [14]) was 24.8 µM; in [3], 35.4 µM; in test [4] it was 23 µM; in test [5], 23.5 µM; in [6], 113 µM. Moreover, the MIC is 78.8 µM (≈ 23.8 µg/mL) in test [7]; 2.5 µM (≈ 0.756 µg/mL) in [8]; 9.1 µM (≈ 2.75 µg/mL) in test [1]; above 100 µM in [9]; above 100 µM in test [10]; 2.5 µM (≈ 0.756 µg/mL) in test [11].
Take `[C-]#[N+][C@@H]1[C@H]2c3c[nH]c4cccc(c34)C(C)(C)[C@H]2CC[C@]1(C)C=C` [HAPALINDOLE J]: the concentration for half-maximal inhibition (IC50) in test [2] (setting [14]) came out at 28.6 µM; in test [3], 43.7 µM; in test [4], 12 µM; in [5], 16.9 µM; in test [6] it was 39.1 µM. Further, the MIC is 39 µM (≈ 11.9 µg/mL) in test [7]; 0.7 µM (≈ 0.213 µg/mL) in test [8]; 8.4 µM (≈ 2.56 µg/mL) in test [1]; above 100 µM in test [9]; above 100 µM in test [10]; 4.3 µM (≈ 1.31 µg/mL) in [11].
Regarding `[C-]#[N+]C1=C2c3c[nH]c4cccc(c34)C(C)(C)[C@H]2CC[C@]1(C)C=C` (relative stereo), the MIC in test [7], in test [8], in test [1], in test [9], in test [10] and in test [11] was above 100 µM throughout. Also, in [12], the concentration for half-maximal inhibition (IC50) was above 100 µM.
Consider `[C-]#[N+][C@@H]1C2=C3C(=O)Nc4cccc(c43)C(C)(C)[C@H]2C[C@@H](Cl)[C@]1(C)C=C` [ANHYDROHAPALOXINDOLE A], for which the 50% inhibitory concentration (IC50) in test [3] is 56.7 µM; in [4], 18.7 µM; in [5], 26 µM; in test [6] it was 80.1 µM. Moreover, the MIC in test [7] was above 100 µM; in test [8] it was 1.9 µM (≈ 0.67 µg/mL); in test [1], 27.3 µM (≈ 9.63 µg/mL); in test [9], above 100 µM; in [10], above 100 µM; in test [11], 16.2 µM (≈ 5.72 µg/mL).
As to `CCCCCC#CC#C/C=C/CCCC[C@H]1C[C@@H](C)C(=O)N1` [FISCHERELLIN B], the MIC in test [7] is above 100 µM; in test [8] it was above 100 µM; in [1] it was above 100 µM; in test [9], above 100 µM; in test [10] it was above 100 µM; in test [11], 23 µM (≈ 6.89 µg/mL). Also, in [12], the 50% inhibitory concentration (IC50) was above 100 µM.
Consider `[C-]#[N+]C1=C2c3c[nH]c4cccc(c34)C(C)(C)[C@H]2C[C@@H](Cl)[C@]1(C)C=C` [HAPALINDOLE I], for which the 50% inhibitory concentration (IC50) result in test [2] (ht-29) is “Not Active”; in test [3] it was above 100 µM; in [4], 68.5 µM; in [5], 93.1 µM; in [6], above 100 µM; in test [12], above 100 µM. For the same molecule, the MIC in test [7] was above 100 µM; in test [8], above 100 µM; in test [1] it was above 100 µM; in test [9], above 100 µM; in [10], above 100 µM; in test [11], 2 µM (≈ 0.674 µg/mL).
With `C=C[C@]1(C)CC2C(=O)c3c(NC=O)cccc3C(C)(C)[C@H]2C[C@H]1O` (relative stereo), the concentration for half-maximal inhibition (IC50) result was “Not Active” in test [2] (ht-29); above 100 µM in test [3]; above 100 µM in test [4]; above 100 µM in test [5]; above 100 µM in [6]; above 100 µM in test [12]. Besides, the MIC in [7], in test [8], in test [1], in test [9], in [10] and in [11] was above 100 µM throughout.
For the molecule `[C-]#[N+][C@@H]1[C@@H]2c3c[nH]c4cccc(c34)C(C)(C)[C@H]2CC[C@]1(C)C=C` [HAPALINDOLE U], the IC50 in [2] (setting [14]) was 52.6 µM; in test [3], above 100 µM; in test [4] it was above 100 µM; in [5] it was above 100 µM; in test [6], above 100 µM.
`[C-]#[N+][C@@H]1[C@H]2c3c([nH]c4ccccc34)C(C)(C)[C@H]2C[C@@H](Cl)[C@@]1(C)C=C` [FISCHERINDOLE L]: the IC50 in test [3] is 28.3 µM; in test [4], 15.1 µM; in test [5], 17.4 µM; in test [6], 46.3 µM; in [12] it was below 9.2 µM. For the same molecule, the MIC in test [7] was 63 µM (≈ 21.3 µg/mL); in test [8] it was 1.2 µM (≈ 0.407 µg/mL); in test [1], 6.4 µM (≈ 2.17 µg/mL); in test [9] it was above 100 µM; in test [10], above 100 µM; in test [11], 22 µM (≈ 7.46 µg/mL).
Molecule `C[C@H]1c2cccc(O)c2C(=O)C2=C(O)[C@]3(O)C(=O)C(C(N)=O)=C(O)[C@@H](N(C)C)[C@@H]3[C@@H](O)[C@@H]21` [DOXYCYCLINE] yielded an MIC in [10] of 0.35 µM (≈ 0.156 µg/mL).
Regarding GENTAMICIN, in test [9], the MIC was 2.3 µM.
Turning to `CO[C@H]1/C=C/O[C@@]2(C)Oc3c(C)c(O)c4c(O)c(c(/C=N/N5CCN(C)CC5)c(O)c4c3C2=O)NC(=O)/C(C)=C\C=C\[C@H](C)[C@H](O)[C@@H](C)[C@@H](O)[C@@H](C)[C@H](OC(C)=O)[C@@H]1C` [RIFAMPIN], the MIC in [11] was 0.24 µM (≈ 0.198 µg/mL).
`[C-]#[N+][C@@H]1[C@H]2c3c[nH]c4cccc(c34)C(C)(C)[C@H]2C[C@@H](Cl)[C@]1(C)C=C` [HAPALINDOLE A]: the half-inhibitory concentration (IC50) is 30.7 µM in test [3]; 17 µM in [4]; 16.3 µM in test [5]; 39.1 µM in [6]; 25.6 µM in test [12]. In addition, the MIC in test [7] is 18.2 µM (≈ 6.17 µg/mL); in test [8], 1.2 µM (≈ 0.407 µg/mL); in test [1], 3.9 µM (≈ 1.32 µg/mL); in test [9] it was 8 µM (≈ 2.71 µg/mL); in [10] it was above 100 µM; in test [11], below 0.6 µM.
In test [8], `C[C@@H]1[C@H](O)[C@@H](C)/C=C/C=C/C=C/C=C/C=C/C=C/C=C/[C@H](O[C@@H]2O[C@H](C)[C@@H](O)[C@H](N)[C@@H]2O)C[C@@H]2O[C@](O)(C[C@@H](O)C[C@@H](O)[C@H](O)CC[C@@H](O)C[C@@H](O)CC(=O)O[C@H]1C)C[C@H](O)[C@H]2C(=O)O` [AMPHOTERICIN B] gave an MIC of 0.12 µM (≈ 0.111 µg/mL).
Consider `[C-]#[N+][C@@H]1[C@H](c2c[nH]c3ccccc23)[C@@H](C(=C)C)CC[C@]1(C)C=C` [HAPALINDOLE C], for which the 50% inhibitory concentration (IC50) was above 100 µM in test [3], 53.7 µM in test [4], 88.6 µM in test [5] and above 100 µM in [6]. The inhibition entry in [13] was “inactive”.
Take `CC[C@@]1(O)C(=O)OCc2c1cc1n(c2=O)Cc2cc3ccccc3nc2-1` [CAMPTOTHECIN]: the IC50 was found to be 0.08 µM in [3], 0.002 µM in [4], 0.07 µM in [5] and 0.43 µM in [6].
In the case of `[C-]#[N+][C@@H]1[C@H]2c3c[nH]c4cccc(c34)C(C)(C)[C@@H]2CC[C@]1(C)C=C` [HAPALINDOLE H], the concentration for half-maximal inhibition (IC50) in test [3] came out at 16.3 µM; in [4], 8.5 µM; in test [5], 10.6 µM; in [6], 31.9 µM.
As for `CN[C@@H]1[C@H](O[C@H]2[C@H](O[C@H]3[C@H](O)[C@@H](O)[C@H](N=C(N)N)[C@@H](O)[C@@H]3N=C(N)N)O[C@@H](C)[C@]2(O)C=O)O[C@@H](CO)[C@H](O)[C@H]1O` [STREPTOMYCIN], the MIC in test [7] stood at 0.41 µM (≈ 0.238 µg/mL).
